Tests used:
CYP2C19 = target: T1, CYP2C19 (Homo sapiens, UniProt P33261); assay: Human CYP2C19 activity inhibition test (S-(+)-mephenytoin to 4'-hydroxymephenytoin); format: in vitro ADME; conditions: test compound 10 μM, human CYP2C19 yeast expression system microsome, 4'-hydroxymephenytoin generated vs control; for CYP2C19 residual activity (%): 10 µM
T1 construct: purchased Sumitomo Chemical Co., Ltd; host or cells: yeast (microsomes)
Experimental: (Human CYP2C19 Activity Inhibition Test)
CYP2C19 specifically participates in the metabolism reaction from S-(+)-mephenytoin to 4′-hydroxymephenytoin. Therefore, by use of an expression system CYP2C19, the production amount (concentration) of 4′-hydroxymephenytoin, serving as an index for CYP2C19 activity, was determined, whereby the inhibitory action of respective test substances was investigated.
(a) Metabolizing Activity Test
A solution of S-(+)-mephenytoin in methanol (125 μmol/L, 50 μL) and a solution of a test substance in methanol (25 μmol/L, 0, 10, 100, or 200 μL) were placed in a 10-mL glass test tube. The solvent was removed under a nitrogen gas at 40° C. A 75 μL mixture of 0.5M phosphate buffer (pH 7.4)-0.5 mM EDTA (20:10), 140 μL purified water, and 10 μL human CYP2C19 yeast expression system microsome (purchased from Sumitomo Chemical Co., Ltd.) were added.
Incubation was performed for 10 minutes at 37° C. Subsequently, aqueous 12% perchloric acid solution (50 μL) was added, to thereby stop the reaction.
After the reaction was stopped, an internal standard substance (I.S.) methyl p-hydroxybenzoate (100 μg/ mL, 50 μL), and diethyl ether (2 mL) were added. The mixture was shaken for 10 minutes, followed by centrifugation at 3,000 rpm for 10 minutes. The organic layer was separated, and the solvent was removed under a nitrogen gas at 40° C. The residue was dissolved in a 200 μL mobile phase, and the mixture was subjected to analysis by high performance liquid chromatography (HPLC).
In order to generate a calibration curve, the general procedure of the above process was repeated by use of 4′-hydroxymephenytoin solution instead of the S-(+)-mephenytoin solution. Quantitation was performed on the basis of the peak area ratio of 4′-hydroxymephenytoin to I.S. The amount of 4′-hydroxymephenytoin generated in the control sample was compared with that generated in the present of a test compound, and the results of comparison were used as an activity index.
HPLC was performed under the conditions described below (HPLC conditions A or HPLC conditions B).

[1] = test system: gastric acid secreted under stimulation with histamine; assay: Gastric acid secretion inhibition action, histamine-stimulated, acute Fistula method; format: in vivo, Sprague-Dawley (SD) rats; conditions: SD rats, administered in the duodenum, histamine 8 mg/kg/h, total acid discharge at 3, 4 and 5 hours, Probit method
Experimental: (Gastric Acid Secretion Inhibition Action)
(1) Test Animals Employed were Sprague-Dawley (SD) Rats (7 Weeks Old, Male) Purchased from Charles River Japan, Inc. Before the Test, the Rats Were Fed for 5 Days or More.
Each test drug was suspended in, or dissolved in, 0.5% sodium carboxymethylcellulose solution, whereby a suspension or solution was prepared so as to attain 2.5 mL/kg.
(2) Measurement of Gastric Acid Secretion
The amount of gastric acid secreted under stimulation with histamine was measured on the rats fasted for 18 hours by use of the acute Fistula method as described by Hiramatsu et al. (Dig. Dis. Sci.,39, 689-697(1994)). Briefly, each rat was etherized lightly, and then a winged tubular needle filled with 3.8% citric acid solution was indwelled in the tail vein of the rat. The abdomen of the rat was opened, and the pyloric part of the stomach was ligated. Subsequently, a small hole was made in the duodenum, and the abdomen of the rat was closed with a feeding tube filled with saline indwelled. The inside of the stomach was washed with saline, a polyethylene-made Fistula tube (inner diameter: 4 mm) was set in the anterior stomach, and the cut portion of the anterior stomach was ligated and secured. The stomach and the duodenum were returned to the abdominal cavity, with the Fistula tube and the feeding tube exposed outside. The rat was placed in a Ballman cage II. Histamine was continuously administered through the winged injection needle which had been indwelled in the tail vein in advance (8 mg/kg/h, 1.38 mL/h). 15 Minutes thereafter, gastric juice of the rat was collected. Subsequently, collection of gastric juice was performed every one hour. Each time, the amount of the collected gastric juice was recorded, followed by titration with NaOH (0.1 mol/L) up to the end point pH 7.0. From the volume consumed for titration, acidity was calculated. The acid discharge amount was calculated as a product of the amount of the gastric juice and the acidity. Before starting the test, the rats were grouped so that the intra-group total amount of the gastric juice samples initially collected was the same between groups. Thereafter, each test drug was administered (2.5 mL/kg) in the duodenum through a feeding tube which had been attached to the duodenum in advance. To each rat of a control group, 0.5% Na-CMC solution was administered.
(3) Analysis of the Results
The data as obtained above are shown by way of mean±standard error. Total amount of acid discharge was obtained through summation of the amounts of acid discharge at three points in time; i.e., 3, 4 and 5 hours after initial collection of gastric juice. Percent inhibition of each group was computed from the total acid discharge amount of the control group and that of each group. On the basis of the percent inhibition calculated for each group, 50% effective dose (ED50) was computed by use of the Probit method.

H+/K+-ATPase = target: T2, H+/K+-ATPase (Sus scrofa, UniProt P19156); assay: Proton pump inhibitory action: activity of inhibiting H+/K+-ATPase (at pH 1); format: biochemical; conditions: pig gastric mucosa enzyme sample; test compounds pretreated in hydrochloric acid solution pH 1 (50% DMSO) for 15 minutes; read-out: Proton pump inhibitory action [IC50 (μmol/L)]
T2 construct: The mucous membrane layer was homogenized in Tris-HCl buffer; from tissue; host or cells: pig stomach body, mucous membrane layer, membrane fraction from a sucrose interface
T2 sequence (P19156 2-1034 limits assumed): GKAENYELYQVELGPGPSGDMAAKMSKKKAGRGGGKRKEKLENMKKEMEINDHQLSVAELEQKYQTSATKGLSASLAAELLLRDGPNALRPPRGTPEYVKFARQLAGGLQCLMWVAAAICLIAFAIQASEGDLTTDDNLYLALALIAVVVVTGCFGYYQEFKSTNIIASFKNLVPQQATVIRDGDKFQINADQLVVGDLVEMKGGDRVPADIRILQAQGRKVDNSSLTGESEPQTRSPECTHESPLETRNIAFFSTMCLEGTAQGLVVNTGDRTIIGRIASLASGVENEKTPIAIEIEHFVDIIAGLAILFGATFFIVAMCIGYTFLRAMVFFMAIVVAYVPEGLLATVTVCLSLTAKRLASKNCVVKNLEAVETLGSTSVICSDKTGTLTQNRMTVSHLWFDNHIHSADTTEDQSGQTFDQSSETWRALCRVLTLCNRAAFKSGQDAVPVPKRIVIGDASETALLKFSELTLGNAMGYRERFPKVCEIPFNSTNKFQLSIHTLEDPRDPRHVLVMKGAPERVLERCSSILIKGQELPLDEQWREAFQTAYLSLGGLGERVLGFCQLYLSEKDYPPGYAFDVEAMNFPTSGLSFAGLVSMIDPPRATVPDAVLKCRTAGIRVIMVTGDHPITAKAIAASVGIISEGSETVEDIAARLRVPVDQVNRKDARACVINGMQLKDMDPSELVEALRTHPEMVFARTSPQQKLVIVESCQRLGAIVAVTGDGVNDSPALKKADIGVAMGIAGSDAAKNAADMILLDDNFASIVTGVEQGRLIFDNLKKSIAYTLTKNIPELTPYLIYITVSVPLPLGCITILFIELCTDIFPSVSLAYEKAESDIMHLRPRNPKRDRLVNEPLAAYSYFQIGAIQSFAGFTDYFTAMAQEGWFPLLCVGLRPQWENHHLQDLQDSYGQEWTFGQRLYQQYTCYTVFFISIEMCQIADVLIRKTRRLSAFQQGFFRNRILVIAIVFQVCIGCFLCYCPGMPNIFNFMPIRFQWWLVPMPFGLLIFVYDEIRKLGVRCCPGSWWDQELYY
T2 sequence (P18434 whole entry partner): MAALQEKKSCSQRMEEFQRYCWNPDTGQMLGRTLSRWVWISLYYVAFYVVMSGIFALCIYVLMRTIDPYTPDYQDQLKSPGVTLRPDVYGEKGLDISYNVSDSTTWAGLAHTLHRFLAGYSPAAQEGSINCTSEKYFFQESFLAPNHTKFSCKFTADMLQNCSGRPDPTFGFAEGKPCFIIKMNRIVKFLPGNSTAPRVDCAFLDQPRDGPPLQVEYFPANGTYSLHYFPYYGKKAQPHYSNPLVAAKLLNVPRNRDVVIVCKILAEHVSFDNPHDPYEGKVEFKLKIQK
Excerpt: (Proton Pump Inhibitory Action)
(1) Preparation of Enzyme Sample (H^+/K^+-ATPase)
The stomach body removed from a pig, which had been stored in a frozen state, was separated into a muscle layer and a mucous membrane layer. The mucous membrane layer was homogenized in Tris-HCl buffer (20 mmol/L, pH 7.4) having a volume 5 times that of the layer and containing sucrose (0.25 mol/L) and EGTA (1 mmol/L) (hereinafter the mixture is referred to as Tris-HCl buffer) in a mixer. The homogenate was subjected to centrifugation (9,000×g, 30 minutes). The supernatant was softly placed on 8 mL Tris-HCl buffer (20 mmol/L, pH 7.4) containing 30% sucrose and 1 mmol/L EGTA. The mixture was subjected to ultracentrifugation at 100,000×g for 60 minutes. The interface fraction obtained through centrifugation was subjected to centrifugation (113,000×g, 60 minutes) twice. Pellet was suspended in Tris-HCl buffer, and the suspension was homogenized at low speed. The resultant homogenate served as an enzyme sample of interest and was stored at −80° C. The protein content of the sample was quantitated through use of a BCA protein assay reagent in accordance with a method described by Smith et al. (Anal. Biochem., 150, 76-85 (1985)). All these steps were performed under cooling with an ice bath.
(2) Activity of inhibiting H^+/K^+-ATPase (at pH 1)
Activity of inhibiting H^+/K^+-ATPase was measured in accordance with a method described in Biochem. Biophys. Res. Commun., 40, 880-886 (1970). Specifically, ATP was employed as a substrate, and inorganic phosphate, which is a resultant degradation product, was quantitated. In consideration of the solubility of test compounds, the test compounds were preliminarily treated with a hydrochloric acid solution (containing 50% DMSO, 1×10^−1 mol/L, pH 1). Each of the test compounds having different concentrations was added to the hydrochloric acid solution to thereby yield a 1,000—fold dilution, and thereafter, the diluted compound was allowed to stand for 15 minutes at room temperature. After these preliminary remedies, a 10 μL solution that had undergone the above preliminary remedies were added to 840 μL Tris-acetate buffer (40 mmol/L, pH 7.5, containing 2 mmol/L MgCl2, may be referred to as TE buffer) containing or not containing 20 mmol/L KCl. Subsequently, a 100 μL enzyme solution (5 μg protein) diluted with the TE buffer was added. Incubation was performed for 30 minutes at 37° C. Thereafter, a 50 μL ATP solution (40 mmol/L) which was dissolved in TE buffer not containing KCl was added to initiate enzyme reaction (total volume: 1 mL, ATP final concentration: 2 mmol/L). Incubation was performed for 30 minutes at 37° C. Subsequently, ice-cold 12% trichloroacetic acid (2 mL) was added, to thereby stop the enzyme reaction. A molybdenum reagent (1 mL, 3.75% ammonium molybdate/1.5 mol/L sulfuric acid) and butyl acetate (5 mL) were added, followed by mixing under vigorous shaking for 5 minutes. The absorption of the butyl acetate layer was measured at 310 nm. A standard curve was determined on the basis of absorption obtained through the similar procedure by use of KH2PO4 at different concentrations dissolved in 8% TCA solution, and inorganic phosphate content was calculated. Samples to be measured were prepared in duplicate. The measurements were averaged, and residual activity was obtained from the difference between the inorganic phosphate content as determined in a sample containing KCl and that as determined in a sample not containing KCl. Percentage inhibition activity was calculated with respect to the activity obtained from a control sample (DMSO), which was considered 100%. As the inhibitory potency of each test compound, IC50 values were computed and shown. All the test compounds were dissolved in dimethyl sulfoxide immediately before use.

T1 sequence (P33261 whole entry): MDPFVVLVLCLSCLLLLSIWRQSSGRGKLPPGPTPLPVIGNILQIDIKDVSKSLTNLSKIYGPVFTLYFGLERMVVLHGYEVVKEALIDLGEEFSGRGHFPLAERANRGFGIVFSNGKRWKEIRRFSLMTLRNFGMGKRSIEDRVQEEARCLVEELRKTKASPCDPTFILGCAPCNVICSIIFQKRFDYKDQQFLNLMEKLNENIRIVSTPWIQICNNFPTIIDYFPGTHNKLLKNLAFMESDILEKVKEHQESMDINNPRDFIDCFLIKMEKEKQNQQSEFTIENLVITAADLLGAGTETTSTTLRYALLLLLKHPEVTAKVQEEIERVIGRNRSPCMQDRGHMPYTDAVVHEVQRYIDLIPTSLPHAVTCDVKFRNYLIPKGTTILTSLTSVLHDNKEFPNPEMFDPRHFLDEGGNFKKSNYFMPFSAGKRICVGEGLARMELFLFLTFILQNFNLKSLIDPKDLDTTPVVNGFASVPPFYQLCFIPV

SMILES | CYP2C19 residual activity (%) (CYP2C19) | Gastric-acid secretion inhibition action [ED50 (mg/kg)] [1] [mg/kg] | IC50 (H+/K+-ATPase) [µmol/L] | activity at 10 min, 10 µM (CYP2C19; human, pH 7.4, probe S-(+)-mephenytoin (to 4'-hydroxymephenytoin), read-out: CYP2C19 residual activity (%)) [%] | ED50 ([1]; Rattus norvegicus) [mg/kg]
[O-][S+](Cc1cc(OCCOCC(F)(F)F)ccn1)c1nc2ccccc2[nH]1 (single isomer, unassigned; (+)) [Example 14, (+)-2-{4-[2-(2,2,2-trifluoroethoxy)ethoxy]pyridin-2-yl-methanesulfinyl}-1H-benzimidazole] | 81.4 | 0.42 | 6.67 |  | 
[O-][S+](Cc1cc(OCCOCC(F)(F)F)ccn1)c1nc2ccccc2[nH]1 (stereo not shown) [Example 12, 2-{4-[2-(2,2,2-trifluoroethoxy)ethoxy]pyridin-2-yl-methanesulfinyl}-1H-benzimidazole] |  |  | 7.86 | 88.8 | 
COc1c(OCCOCC(F)(F)F)ccnc1C[S+]([O-])c1nc2ccccc2[nH]1 (single isomer, unassigned; (-)) [Example 4, (−)-2-{3-methoxy-4-[2-(2,2,2-trifluoroethoxy)ethoxy]pyridin-2-yl-methylsulfinyl}-1H-benzimidazole] | 93.9 | 2.6 | 3.46 |  | 
COc1c(OCCCC(F)(F)F)ccnc1C[S+]([O-])c1nc2ccccc2[nH]1 (single isomer, unassigned; (+)) [Example 5(1), (+)-2-[3-methoxy-4-(4,4,4-trifluorobutoxy)pyridin-2-yl-methanesulfinyl]-1H-benzimidazole] | 78.6 |  | 3.32 |  | 0.9
[O-][S+](Cc1cc(OCCCC(F)(F)F)ccn1)c1nc2ccccc2[nH]1 (single isomer, unassigned; (+)) [Example 11, (+)-2-[4-(4,4,4-trifluorobutoxy)pyridin-2-yl-methanesulfinyl]-1H-benzimidazole] |  | 0.50 | 3.77 |  | 
